ChEMBL document CHEMBL1201862, “PubChem BioAssay data set” (2004)
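Five compound concentrations were applied to cells in 96-well plates for 48 hours; endpoints were derived by simple linear interpolation of the resulting dose-response curve. The concentration for 50% growth inhibition is given as GI50.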 Active and inactive are the calls of the source. No stated cut-off is given here; in the data, active = GI50 up to about 1.1 µM and inactive = higher.

Key:
Assay in all cases: growth of human tumour cells (NCI), 48 h
MDA-MB-231 = tested on: MDA-MB-231
OVCAR-5 = tested on: OVCAR-5
Hs-578T = tested on: Hs-578T
CAKI-1 = tested on: CAKI-1
LOX IMVI = tested on: LOX IMVI
SNB-75 = tested on: SNB-75
UO-31 = tested on: UO-31
DU-145 = tested on: DU-145
IGROV-1 = tested on: IGROV-1
HOP-62 = tested on: HOP-62
PC-3 = tested on: PC-3
EKVX = tested on: EKVX
UACC-62 = tested on: UACC-62
TK-10 = tested on: TK-10
Malme-3M = tested on: Malme-3M
NCI/ADR-RES = tested on: NCI/ADR-RES
OVCAR-3 = tested on: OVCAR-3
A549 = tested on: A549
NCI-H23 = tested on: NCI-H23
SF-539 = tested on: SF-539

| SMILES | GI50 (MDA-MB-231) | GI50 (OVCAR-5) | GI50 (Hs-578T) | GI50 (CAKI-1) | GI50 (LOX IMVI) | GI50 (SNB-75) | GI50 (UO-31) | GI50 (DU-145) | GI50 (IGROV-1) | GI50 (HOP-62) | GI50 (PC-3) | GI50 (EKVX) | GI50 (UACC-62) | GI50 (TK-10) | GI50 (Malme-3M) | GI50 (NCI/ADR-RES) | GI50 (OVCAR-3) | GI50 (A549) | GI50 (NCI-H23) | GI50 (SF-539) |
| --- | --- | --- | --- | --- | --- | --- | --- | --- | --- | --- | --- | --- | --- | --- | --- | --- | --- | --- | --- | --- |
| CC1=C(O)C(=O)c2ccccc2C1=O | > 100 µM (inactive) | > 100 µM (inactive) | 78.2 µM (inactive) | > 100 µM (inactive) | 70.6 µM (inactive) | 44.3 µM (inactive) | 21.5 µM (inactive) | 64.9 µM (inactive) | 80.4 µM (inactive) | > 100 µM (inactive) | 82.6 µM (inactive) | > 100 µM (inactive) | 39.3 µM (inactive) | 24.3 µM (inactive) | 9.02 µM (inactive) | > 100 µM (inactive) | 43.4 µM (inactive) | > 100 µM (inactive) | 12.3 µM (inactive) | > 100 µM (inactive) |
| NCC1CCN(c2nc3ccccc3c3c2CCCC3)CC1 | 5.57 µM (inactive) | 11.9 µM (inactive) | 20.1 µM (inactive) | 8.61 µM (inactive) | 4.81 µM (inactive) | 4.21 µM (inactive) | 5.6 µM (inactive) | 13.1 µM (inactive) | 8.85 µM (inactive) | 14.7 µM (inactive) | 8.93 µM (inactive) | 11.8 µM (inactive) | 2.29 µM (inactive) | 12.9 µM (inactive) | 13.2 µM (inactive) | 12.9 µM (inactive) | 9.75 µM (inactive) | 11.2 µM (inactive) | 15.5 µM (inactive) | 4.65 µM (inactive) |
| O=C1NC(c2ccccc2)N=C2Oc3ccccc3C=C12 (configuration not stated) | 0.569 µM (active) | 1.04 µM (active) | 0.521 µM (active) | 0.0255 µM (active) | 5.12 µM (inactive) | 0.547 µM (active) | 8.22 µM (inactive) | 0.231 µM (active) | 0.535 µM (active) | 0.543 µM (active) | 0.0753 µM (active) | 0.181 µM (active) | 0.127 µM (active) | > 63.1 µM (inactive) | 0.122 µM (active) | 0.533 µM (active) | 0.0897 µM (active) | 1.73 µM (inactive) | 0.151 µM (active) | 2.6 µM (inactive) |
| O=C(O)CC(NC(=O)Nc1ccc([N+](=O)[O-])cc1)C(=O)Nc1ccc([N+](=O)[O-])cc1 (configuration not stated) | > 100 µM (inactive) | > 100 µM (inactive) | 50.2 µM (inactive) | > 100 µM (inactive) | > 100 µM (inactive) | > 100 µM (inactive) | > 100 µM (inactive) | > 100 µM (inactive) | > 100 µM (inactive) | > 100 µM (inactive) | > 100 µM (inactive) | > 100 µM (inactive) | 0.69 µM (active) | > 100 µM (inactive) | > 100 µM (inactive) | > 100 µM (inactive) | > 100 µM (inactive) | > 100 µM (inactive) | > 100 µM (inactive) | > 100 µM (inactive) |
| O=[N+]([O-])c1ccc(N/N=C/CC(O)(C(F)(F)F)C(F)(F)F)c([N+](=O)[O-])c1 | > 10 µM (inactive) | – | 2.74 µM (inactive) | 3.15 µM (inactive) | 5.55 µM (inactive) | > 10 µM (inactive) | 3.06 µM (inactive) | 3.1 µM (inactive) | 4.47 µM (inactive) | 4.17 µM (inactive) | 3.24 µM (inactive) | 5.35 µM (inactive) | 4.06 µM (inactive) | 5.79 µM (inactive) | 4.97 µM (inactive) | 3.68 µM (inactive) | 2.8 µM (inactive) | 4.69 µM (inactive) | 2.77 µM (inactive) | 2.3 µM (inactive) |
| CC1=NNC(=S)NCCCN2CCN(CCCNC(=S)NN=C(C)C=NNC(=S)NCCCN3CCN(CCCNC(=S)NN=C1)CC3)CC2 | > 100 µM (inactive) | > 100 µM (inactive) | > 100 µM (inactive) | > 100 µM (inactive) | > 100 µM (inactive) | > 100 µM (inactive) | > 100 µM (inactive) | > 100 µM (inactive) | > 100 µM (inactive) | > 100 µM (inactive) | > 100 µM (inactive) | > 100 µM (inactive) | > 100 µM (inactive) | > 100 µM (inactive) | > 100 µM (inactive) | > 100 µM (inactive) | > 100 µM (inactive) | > 100 µM (inactive) | > 100 µM (inactive) | > 100 µM (inactive) |
| CCOC(=O)c1cn(CC)c2ccc3ccsc3c2c1=O | > 100 µM (inactive) | > 100 µM (inactive) | > 100 µM (inactive) | > 100 µM (inactive) | > 100 µM (inactive) | 69.5 µM (inactive) | > 100 µM (inactive) | > 100 µM (inactive) | > 100 µM (inactive) | > 100 µM (inactive) | > 100 µM (inactive) | > 100 µM (inactive) | > 100 µM (inactive) | > 100 µM (inactive) | > 100 µM (inactive) | > 100 µM (inactive) | > 100 µM (inactive) | > 100 µM (inactive) | > 100 µM (inactive) | > 100 µM (inactive) |
| C/C(=N\NC(N)=O)C(CN1CCOCC1)C(c1ccccc1)c1c(O)c2ccccc2oc1=O (configuration not stated) | > 100 µM (inactive) | > 100 µM (inactive) | > 100 µM (inactive) | > 100 µM (inactive) | > 100 µM (inactive) | > 100 µM (inactive) | > 100 µM (inactive) | > 100 µM (inactive) | > 100 µM (inactive) | – | > 100 µM (inactive) | > 100 µM (inactive) | > 100 µM (inactive) | > 100 µM (inactive) | > 100 µM (inactive) | > 100 µM (inactive) | > 100 µM (inactive) | > 100 µM (inactive) | > 100 µM (inactive) | > 100 µM (inactive) |
| O=C(c1ccccc1)c1ccc2[nH]c(-c3c(Cl)c(Cl)c(Cl)c(Cl)c3C(=O)N/N=C\C=C\c3ccccc3)nc2c1 | 22.6 µM (inactive) | > 100 µM (inactive) | 52.7 µM (inactive) | 77.4 µM (inactive) | 48.9 µM (inactive) | 59.4 µM (inactive) | 39.5 µM (inactive) | 73.1 µM (inactive) | 34.4 µM (inactive) | 54.1 µM (inactive) | 42.3 µM (inactive) | 40.7 µM (inactive) | – | 86.9 µM (inactive) | 57.3 µM (inactive) | > 100 µM (inactive) | 25.1 µM (inactive) | 50.1 µM (inactive) | 59.3 µM (inactive) | 61 µM (inactive) |
| O=C1c2cc(CCl)sc2C(=O)c2ccsc21 | 0.232 µM (active) | 1.85 µM (inactive) | 0.233 µM (active) | 1.72 µM (inactive) | < 0.0248 µM (active) | 0.192 µM (active) | 0.301 µM (active) | 0.191 µM (active) | 1.49 µM (inactive) | – | 0.254 µM (active) | 1.24 µM (inactive) | 0.178 µM (active) | 1.95 µM (inactive) | 0.0387 µM (active) | 0.2 µM (active) | 0.207 µM (active) | 0.199 µM (active) | 0.0618 µM (active) | 0.228 µM (active) |
| COc1ccc(/C=C2/C(=O)C(c3ccccc3)N(c3ccccc3)C2=O)cc1OC (configuration not stated) | > 10 µM (inactive) | > 10 µM (inactive) | > 10 µM (inactive) | > 10 µM (inactive) | > 10 µM (inactive) | – | > 10 µM (inactive) | > 10 µM (inactive) | 0.975 µM (active) | > 10 µM (inactive) | > 10 µM (inactive) | > 10 µM (inactive) | > 10 µM (inactive) | > 10 µM (inactive) | 1.42 µM (inactive) | > 10 µM (inactive) | > 10 µM (inactive) | > 10 µM (inactive) | > 10 µM (inactive) | > 10 µM (inactive) |
| Cn1c(=O)c2c(nc3[nH]c(=O)c(Br)cn32)n(C)c1=O | > 100 µM (inactive) | > 100 µM (inactive) | > 100 µM (inactive) | > 100 µM (inactive) | > 100 µM (inactive) | > 100 µM (inactive) | > 100 µM (inactive) | > 100 µM (inactive) | > 100 µM (inactive) | > 100 µM (inactive) | > 100 µM (inactive) | 93.8 µM (inactive) | > 100 µM (inactive) | > 100 µM (inactive) | – | > 100 µM (inactive) | > 100 µM (inactive) | > 100 µM (inactive) | > 100 µM (inactive) | > 100 µM (inactive) |
| O=C(Nc1nc2ccccc2s1)c1cc([N+](=O)[O-])ccc1Cl | > 55.1 µM (inactive) | 23 µM (inactive) | 2.88 µM (inactive) | 37.6 µM (inactive) | 3.44 µM (inactive) | 13.8 µM (inactive) | 6.76 µM (inactive) | 6.84 µM (inactive) | – | 13.6 µM (inactive) | 7.24 µM (inactive) | 10.1 µM (inactive) | 7.5 µM (inactive) | 66.4 µM (inactive) | 23.7 µM (inactive) | 6.89 µM (inactive) | 16.7 µM (inactive) | 6.17 µM (inactive) | 4.91 µM (inactive) | 4.73 µM (inactive) |
| CN(C)c1n2c3cc([N+](=O)[O-])ccc3[n+]3c(N(C)C)n4ccccc4c3c2c2cccc[n+]12.[O-][Cl+3]([O-])([O-])[O-].[O-][Cl+3]([O-])([O-])[O-] | > 100 µM (inactive) | > 100 µM (inactive) | 29.9 µM (inactive) | > 100 µM (inactive) | > 100 µM (inactive) | > 100 µM (inactive) | > 100 µM (inactive) | > 100 µM (inactive) | > 100 µM (inactive) | > 100 µM (inactive) | > 100 µM (inactive) | > 100 µM (inactive) | > 100 µM (inactive) | > 100 µM (inactive) | > 100 µM (inactive) | > 100 µM (inactive) | > 100 µM (inactive) | > 100 µM (inactive) | > 100 µM (inactive) | – |
